Assay results taken from patent US20100216751A1 (priority 2007, published 2010).

Test: Pharmacokinetic evaluation of liquid bevirimat dosage forms, oral gavage, male Cynomolgus monkeys
Details: male, cynomolgus monkey, in vivo, po; for concentration at 72 hr: BLOQ=below 50 ng/mL; for AUC: AUCall
Description: Six male Cynomolgus monkeys having an initial body weight of about 3.5 to about 4.5 kg are allowed 7 days to acclimate to their individual housing units. Monkeys are supplied with water and a commercial diet ad libitum prior to the study initiation. Food is withheld from the monkeys for a minimum of twelve hours before the study and during the study until four hours postdose when food is returned. Water is supplied ad libitum.
Test formulations are administered to the monkeys at time 0 on appropriate days. Test formulations will be dosed orally via oral gavage or intravenously.
Samples are drawn at the frequencies indicated below. Each blood sample (0.5 mL) is collected from the monkey's saphenous vein via a butterfly catheter and placed into a chilled polypropylene tube containing sodium heparin as the anticoagulant. Blood samples are centrifuged at a temperature of 4° C. at a speed of 3,000 rpm for 15 minutes. All samples are maintained chilled throughout processing. Plasma is collected after centrifugation, pipetted into a 2-mL polypropylene microtube, and frozen on dry-ice pending analytical evaluation.

[1] = 50 mg FAE/monkey, Plasma concentration, 12.5 mg FAE/mL in 10% HPβCD, 50 mg FAE/monkey oral gavage, monkeys 186,116,120,AVG
[2] = 50 mg FAE/monkey, Plasma concentration, 12.5 mg FAE/mL in 15% EtOH:0.5% TPGS:15% PG:5% Glycerin, 0.2% Povidone K90, 50 mg FAE/monkey oral gavage, monkeys 117,118,119,AVG
[3] = 50 mg FAE/monkey, Plasma concentration, 25 mg/mL in 30% EtOH:1% TPGS:30% PG:10% Glycerin, 50 mg FAE/monkey oral gavage, monkeys 117,118,119,AVG
[4] = 50 mg FAE/monkey, Plasma concentration, 50 mg FAE/mL in 40% EtOH:40% PG:20% Glycerol, 50 mg FAE/monkey oral gavage, monkeys 117,118,119,AVG
[5] = 50 mg, 12.5 mg FAE/mL in 10% HPβCD, 50 mg FAE/monkey oral gavage, monkeys 186,116,120,AVG
[6] = 50 mg, 12.5 mg FAE/mL in 15% EtOH:0.5% TPGS:15% PG:5% Glycerin, 0.2% Povidone K90, 50 mg FAE/monkey oral gavage, monkeys 117,118,119,AVG
[7] = 50 mg, 12.5 mg FAE/mL in 40% PG, 20% Glycerin, 0.25% Tween80, 0.2% Povidone K15, 50 mg FAE oral gavage, monkeys 186,116,120,AVG

C=C(C)[C@@H]1CC[C@]2(C(=O)O)CC[C@]3(C)[C@H](CC[C@@H]4[C@@]5(C)CC[C@H](OC(=O)CC(C)(C)C(=O)O)C(C)(C)[C@@H]5CC[C@]43C)[C@@H]12 [Bevirimat, 3-O-(3′,3′-dimethylsuccinyl)betulinic acid]
concentration at 2 hr [1]: 59200 ng/mL
concentration at 2 hr [2]: 51300 ng/mL
concentration at 2 hr [3]: 56700 ng/mL
concentration at 2 hr [4]: 25800 ng/mL
concentration at 2 hr (50 mg FAE/monkey, Plasma concentration, 50 mg FAE/mL in 40% PG:20% Glycerin:1% TPGS:5% Tween 80 in SWFI, 50 mg FAE/monkey oral gavage, monkeys 117,118,119,AVG): 17900 ng/mL
concentration at 4 hr [1]: 35000 ng/mL
concentration at 4 hr [2]: 33100 ng/mL
concentration at 6 hr [1]: 20700 ng/mL
concentration at 6 hr [2]: 23100 ng/mL
concentration at 8 hr (50 mg FAE/monkey, Plasma concentration, 8.0 hr, 12.5 mg FAE/mL in 10% HPβCD, 50 mg FAE/monkey oral gavage, monkeys 186,116,120,AVG): 13000 ng/mL
concentration at 24 hr (50 mg FAE/monkey, Plasma concentration, 24 hr, 12.5 mg FAE/mL in 10% HPβCD, 50 mg FAE/monkey oral gavage, monkeys 186,116,120,AVG): 1560 ng/mL
concentration at 72 hr [1]: 120 ng/mL
concentration at 72 hr (50 mg FAE/monkey, Plasma concentration, 12.5 mg FAE/mL in 15% EtOH:0.5% TPGS:15% PG:5% Glycerin, 50 mg FAE/monkey oral gavage, monkeys 117,118,119,AVG): 233 ng/mL
concentration at 72 hr [3]: 69.3 ng/mL
concentration at 72 hr [4]: 76 ng/mL
AUC [5]: 348 µg·h/mL
AUC [6]: 488 µg·h/mL
AUC [7]: 212 µg·h/mL
Cmax [5]: 59200 ng/mL
Cmax [6]: 51300 ng/mL
Cmax (50 mg, 12.5 mg FAE/mL in 15% Ethanol, 30% PG, 10% Glycerin, 50 mg FAE oral gavage, monkeys 117,118,119,AVG): 64100 ng/mL
Cmax [7]: 42800 ng/mL
Cmax (50 mg, 12.5 mg FAE/mL in 40% PG, 20% Glycerin, 1% TPGS, 0.25% Tween80, 0.2% Povidone K15, 50 mg FAE/monkey oral gavage, monkeys 117,118,119,AVG): 93300 ng/mL
Cmax (50 mg, 50 mg FAE/mL in 40% EtOH:40% PG:20% Glycerol, 50 mg FAE/monkey oral gavage, monkeys 117,118,119,AVG): 25800 ng/mL
Cmax (50 mg, 50 mg/monkey, PG/glycerin/Vitamin ETPGS/Tween80/Plasdone C15 formulation, AVG): 62400 ng/mL
Cmax (50 mg, 50 mg/monkey, PG/glycerin/Vitamin ETPGS/Tween80/Plasdone C15 formulation, individual monkey): 55100 ng/mL
Cmax (50 mg, 50 mg/monkey, PG/glycerin/Vitamin ETPGS/ethanol formulation, AVG): 60100 ng/mL
Cmax (50 mg, 50 mg/monkey, PG/glycerin/Vitamin ETPGS/ethanol formulation, individual monkey): 58900 ng/mL
half-life (50 mg, t1/2, 12.5 mg FAE/mL in 10% HPβCD, 50 mg FAE/monkey oral gavage, monkeys 186,116,120,AVG): 9.9 h
half-life (50 mg, t1/2, 12.5 mg FAE/mL in 15% EtOH:0.5% TPGS:15% PG:5% Glycerin, 50 mg FAE/monkey oral gavage, monkeys 117,118,119,AVG): 12 h
half-life (50 mg, t1/2, 12.5 mg FAE/mL in 15% EtOH:0.5% TPGS:15% PG:5% Glycerin, 0.2% Povidone K90, 50 mg FAE/monkey oral gavage, monkeys 117,118,119,AVG): 12.2 h
half-life (50 mg, t1/2, 12.5 mg FAE/mL in 15% Ethanol, 30% PG, 10% Glycerin, 50 mg FAE oral gavage, monkeys 117,118,119,AVG): 8.9 h
half-life (50 mg, t1/2, 12.5 mg FAE/mL in 40% PG, 20% Glycerin, 0.25% Tween80, 0.2% Povidone K15, 50 mg FAE oral gavage, monkeys 186,116,120,AVG): 8 h
half-life (50 mg, t1/2, 12.5 mg FAE/mL in 40% PG, 20% Glycerin, 1% TPGS, 0.25% Tween80, 50 mg FAE/monkey oral gavage, monkeys 186,116,120,AVG): 9.9 h
half-life (50 mg, t1/2, 12.5 mg FAE/mL in 40% PG, 20% Glycerin, 1% TPGS, 0.25% Tween80, 0.2% Povidone K15, 50 mg FAE/monkey oral gavage, monkeys 117,118,119,AVG): 10.4 h
half-life (50 mg, t1/2, 25 mg/mL in 30% EtOH:1% TPGS:30% PG:10% Glycerin, 50 mg FAE/monkey oral gavage, monkeys 117,118,119,AVG): 10.6 h
half-life (50 mg, t1/2, 50 mg FAE/mL in 40% EtOH:40% PG:20% Glycerol, 50 mg FAE/monkey oral gavage, monkeys 117,118,119,AVG): 9.8 h
half-life (50 mg, t1/2, 50 mg FAE/mL in 40% PG:20% Glycerin:1% TPGS:5% Tween 80 in SWFI, 50 mg FAE/monkey oral gavage, monkeys 117,118,119,AVG): 11.8 h
half-life (50 mg, t1/2, 10% HPβCD, 50 mg FAE/monkey oral gavage, monkeys 117,118,119,AVG): 10 h
half-life (50 mg, t1/2, oral, 50 mg/monkey, PG/glycerin/Vitamin ETPGS/Tween80/Plasdone C15 formulation, AVG): 6.4 h
half-life (50 mg, t1/2, oral, 50 mg/monkey, PG/glycerin/Vitamin ETPGS/Tween80/Plasdone C15 formulation, individual monkey): 8.6 h
half-life (50 mg, t1/2, oral, 50 mg/monkey, PG/glycerin/Vitamin ETPGS/ethanol formulation, AVG): 6.9 h
half-life (50 mg, t1/2, oral, 50 mg/monkey, PG/glycerin/Vitamin ETPGS/ethanol formulation, individual monkey): 6.2 h
Tmax (50 mg, tmax, 12.5 mg FAE/mL in 40% PG, 20% Glycerin, 1% TPGS, 0.25% Tween80, 0.2% NaCMC, 50 mg FAE/monkey oral gavage, monkeys 117,118,119,AVG): 1 h
concentration at 0.25 h (50 mg/monkey, Plasma Concentration, PG/glycerin/Vitamin ETPGS/Tween80/Plasdone C15 formulation, AVG): 64.6 ng/mL
concentration at 0.25 h (50 mg/monkey, Plasma Concentration, PG/glycerin/Vitamin ETPGS/Tween80/Plasdone C15 formulation, individual monkey): 69.8 ng/mL
concentration at 0.5 h (50 mg/monkey, Plasma Concentration, PG/glycerin/Vitamin ETPGS/Tween80/Plasdone C15 formulation, 0.50 hr, AVG): 3550 ng/mL
